These molecules were tested on Cell Necrosis (assay: Cell necrosis assay / cell viability assay (necrosis inhibitor activity)). Settings: necrosis inhibitor activity; EC data for 14-191 extrapolated; read-out: EC50.
Assay type: cell-based

Structure (SMILES) | EC50 [nM]
O=C(N1CCN(c2ncc(F)cn2)CC1)N1N=CCC1c1cc(F)cc(F)c1 (stereo not shown) [Compound 101, (5-(3,5-difluorophenyl)-4,5-dihydro-1H-pyrazol-1-yl)(4-(5-fluoropyrimidin-2-yl)piperazin-1-yl)methanone] | 1 to 1000
O=C(N1CC(Oc2ccc(F)cc2Cl)C1)N1N=CCC1c1ccccc1 (stereo not shown) [Compound 67, (3-(2-chloro-4-fluorophenoxy)azetidin-1-yl)(5-phenyl-4,5-dihydro-1H-pyrazol-1-yl)methanone] | 1 to 1000
N#Cc1cnc(OC2CN(C(=O)N3N=CCC3c3ccccc3)C2)s1 (stereo not shown) [Compound 120, 2-((1-(5-phenyl-4,5-dihydro-1H-pyrazole-1-carbonyl)azetidin-3-yl)oxy)thiazole-5-carbonitrile] | 1000 to 10000
O=C(N1CC(=Cc2ccc(F)cc2)C1)N1N=CCC1c1cc(F)cc(F)c1 (stereo not shown) [Compound 57, (5-(3,5-difluorophenyl)-4,5-dihydro-1H-pyrazol-1-yl)(3-(4-fluorobenzylidene)azetidin-1-yl)methanone] | 1 to 1000
O=C(N1CC(Cc2ccccc2F)C1)N1N=CCC1c1ccccc1 (stereo not shown) [Compound 40, (3-(2-fluorobenzyl)azetidin-1-yl)(5-phenyl-4,5-dihydro-1H-pyrazol-1-yl)methanone] | 1 to 1000
O=C(N1CC(C(F)(F)c2ccc(F)cc2F)C1)N1N=CCC1c1cc(F)cc(F)c1 (stereo not shown) [Compound 135, (5-(3,5-difluorophenyl)-4,5-dihydro-1H-pyrazol-1-yl)(3-((2,4-difluorophenyl)difluoromethyl)azetidin-1-yl)methanone] | 1 to 1000
NC(=O)c1c(F)cc(OC2CN(C(=O)N3N=CCC3c3cc(F)cc(F)c3)C2)cc1F (stereo not shown) [Compound 156] | 1 to 1000
O=C(N1CC(Oc2ccccc2F)C1)N1OCC[C@H]1c1ccccc1 [Compound 77, (S)-(3-(2-fluorophenoxy)azetidin-1-yl)(3-phenylisoxazolidin-2-yl)methanone] | 1 to 1000
O=C(NC1CCN(c2ncccn2)C1)N1N=CCC1c1ccccc1 (stereo not shown) [Compound 22] | 1000 to 10000
CNC(=O)c1csc(OC2CN(C(=O)N3N=CCC3c3cc(F)cc(F)c3)C2)n1 (stereo not shown) [Compound 171] | 1 to 1000
O=C(N1CC(=Cc2ccc(F)cc2Cl)C1)N1N=CCC1c1cc(F)cc(F)c1 (stereo not shown) [Compound 139, (3-(2-chloro-4-fluorobenzylidene)azetidin-1-yl)(5-(3,5-difluorophenyl)-4,5-dihydro-1H-pyrazol-1-yl)methanone] | 1 to 1000
CC(=C1CN(C(=O)N2N=CCC2c2ccccc2)C1)c1ccccc1 (stereo not shown) [Compound 123, (5-phenyl-4,5-dihydro-1H-pyrazol-1-yl)(3-(1-phenylethylidene)azetidin-1-yl)methanone] | 1 to 1000
O=C(N1CC(=Cc2ccc3ccc(=O)[nH]c3c2)C1)N1N=CCC1c1cc(F)cc(F)c1 (stereo not shown) [Compound 190] | 1 to 1000
O=C1NCc2cc(OC3CN(C(=O)N4N=CCC4c4cc(F)cc(F)c4)C3)ccc21 (stereo not shown) [Compound 167] | 1 to 1000
O=C(N1CCN(c2ccncn2)CC1)N1N=CCC1c1ccccc1 (stereo not shown) [Compound 90, (5-phenyl-4,5-dihydro-1H-pyrazol-1-yl)(4-(pyrimidin-4-yl)piperazin-1-yl)methanone] | 1000 to 10000

Same assay, conditions: necrosis inhibitor activity; compounds outside 14-191; read-out: EC50

Structure (SMILES) | EC50 [nM]
O=C(N1CC(=Cc2ccc3[nH]cnc3c2)C1)N1N=CC[C@H]1c1cc(F)cc(F)c1 [Compound 284] | 1 to 1000
O=C(N1CC[C@@H](Oc2ccnc3ccnn23)C1)N1N=CC[C@H]1c1cc(F)cc(F)c1 [Compound 242, ((S)-5-(3,5-difluorophenyl)-4,5-dihydro-1H-pyrazol-1-yl)((R)-3-(pyrazolo[1,5-a]pyrimidin-7-yloxy)pyrrolidin-1-yl)methanone] | 1 to 1000
O=C(N1CC(=Cc2cc3[nH]nc(F)c3cc2F)C1)N1N=CCC1c1ccccc1 (stereo not shown) [Compound 296, (3-((3,5-difluoro-1H-indazol-6-yl)methylene)azetidin-1-yl)(5-phenyl-4,5-dihydro-1H-pyrazol-1-yl)methanone] | 1 to 1000
O=C(N1CC(Oc2cc3[nH]nc(F)c3cc2F)C1)N1N=CC[C@H]1c1cc(F)cc(F)c1 [Compound 376, (S)-(3-((3,5-difluoro-1H-indazol-6-yl)oxy)azetidin-1-yl)(5-(3,5-difluorophenyl)-4,5-dihydro-1H-pyrazol-1-yl)methanone] | 1 to 1000
CC1CCCN(C(=O)N2N=CCC2c2ccccc2)C1 (stereo not shown) [Compound 9, (3-methylpiperidin-1-yl)(5-phenyl-4,5-dihydro-1H-pyrazol-1-yl)methanone] | 1 to 1000
CC1Oc2cc(F)c(OC3CN(C(=O)N4N=CC[C@H]4c4cc(F)cc(C#N)c4)C3)cc2NC1=O (stereo partly drawn) [Compound 351, 3-fluoro-5-((5S)-1(3-((7-fluoro-2-methyl-3-oxo-3,4-dihydro-2H-benzo[b][1,4]oxazin-6-yl)oxy)azetidine-1-carbonyl)-4,5-dihydro-1H-pyrazol-5. yl)benzonitrile] | 1 to 1000
CC(=O)Nc1nccc(O[C@@H]2CCN(C(=O)N3N=CC[C@H]3c3cc(F)cc(F)c3)C2)n1 [Compound 368, N-(4-(((R)-1-((S)-5-(3,5-difluorophenyl)-4,5-dihydro-H-pyrazole-1-carbonyl)pyrrolidin-3-yl)oxy)pyrimidin-2-yl)acetamide] | 1 to 1000
N#Cc1nccc(OC2CN(C(=O)N3N=CC[C@H]3c3cc(F)cc(F)c3)C2)n1 [Compound 265, (S)-4-((1-(5-(3,5-difluorophenyl)-4,5-dihydro-1H-pyrazole-1-carbonyl)azetidin-3-yl)oxy)pyrimidine-2-carbonitrile] | 1 to 1000
COCCC1Oc2cc(F)c(OC3CN(C(=O)N4N=CC[C@H]4c4cc(F)cc(F)c4)C3)cc2N(C)C1=O (stereo partly shown) [Compound 247] | 1 to 1000
O=C(N1CC(Oc2ccc3cn[nH]c3c2)C1)N1N=CC[C@H]1c1cc(F)cc(F)c1 [Compound 234, (S)(3-((1H-indazol-6-yl)oxy)azetidin-1-yl)(5-(3,5-difluorophenyl)-4,5-dihydro-1H-pyrazol-1-yl)methanone] | 1 to 1000
CN(C(=O)N1N=CCC1c1ccccc1)C1CCCCC1 (stereo not shown) [Compound 12, N-cyclohexyl-N-methyl-5-phenyl-4,5-dihydro-1H-pyrazole-1-carboxamide] | 1000 to 10000
N#Cc1cccc(O[C@@H]2CCN(C(=O)N3N=CC[C@H]3c3cc(F)cc(F)c3)C2)n1 [Compound 337, 6-(((R)-1-((S)-5-(3,5-difluorophenyl)-4,5-dihydro-1H-pyrazole-1-carbonyl)pyrrolidin-3-yl)oxy)picolinonitrile] | 1 to 1000
O=C(N1CC(=Cc2ccc(Cl)cc2F)C1)N1N=CC[C@H]1c1cc(F)cc(F)c1 [Compound 313] | 1 to 1000
CCOC(=O)c1nc(OC2CN(C(=O)N3N=CC[C@H]3c3cc(F)cc(F)c3)C2)sc1Cl [Compound 272, ethyl (S)-5-chloro-2-((1-(5-(3,5-difluorophenyl)-4,5-dihydro-1H-pyrazole-1-carbonyl)azetidin-3-yl)oxy)thiazol-4-carboxylate] | 1 to 1000
Nc1nccc(O[C@@H]2CCN(C(=O)N3N=CC[C@H]3c3cc(F)cc(F)c3)C2)n1 [Compound 367, ((R)-3-((2-aminopyrimidin-4-yl)oxy)pyrrolidin-1-yl)((S)-5-(3,5-difluorophenyl)-4,5-dihydro-1H-pyrazol-1-yl)methanone] | 1 to 1000
O=C(N1CC(=Cc2ccc(F)cc2)C1)N1N=CCC1c1cncc(F)c1 (stereo not shown) [Compound 309, (3-(4-fluorobenzylidene)azetidin-1-yl)(5-(5-fluoropyridin-3-yl)-4,5-dihydro-1H-pyrazol-1-yl)methanone] | 1 to 1000
NC(=O)CC[C@@H]1Oc2cc(F)c(OC3CN(C(=O)N4N=CC[C@H]4c4cc(F)cc(F)c4)C3)cc2NC1=O [Compound 245, 3-((S)-6-((1-((S)-5-(3,5-difluorophenyl)-4,5-dihydro-1H-pyrazole-1-carbonyl)azetidin-3-yl)oxy)-7-fluoro-3-oxo-3,4-dihydro-2H-benzo[b][1,4]oxazin-2-yl)propanamide] | 1 to 1000
O=C(N1CC(Oc2ccc(F)cc2F)C1)N1N=CCC1c1cncc(F)c1 (stereo not shown) [Compound 213, (3-(2,4-difluorophenoxy)114zetidine-1-yl)(5-(5-fluoropyridin-3-yl)-4,5-dihydro-1H-pyrazol-1-yl)methanone] | 1 to 1000
N#Cc1cc(F)cc([C@@H]2CC=NN2C(=O)N2CC(Oc3cc4[nH]nc(F)c4cc3F)C2)c1 [Compound 377, (S)-3-(1-(3-((3,5-difluoro-1H-indazol-6-yl)oxy)azetidine-1-carbonyl)-4,5-dihydro-1H-pyrazol-5-yl)-5-fluorobenzonitrile] | 1 to 1000
CC1Oc2cc(F)c(OC3CN(C(=O)N4N=CC[C@H]4c4ccccc4)C3)cc2NC1=O (stereo partly drawn) [Compound 352, 7-fluoro-2-methyl-6-((1-((S)-5-phenyl-4,5-dihydro-1H-pyrazole-1-carbonyl)azetidin-3-yl)oxy)-2H-benzo[b][1,4]oxazin-3(4H)-one] | 1 to 1000
O=C(N1CC(=Cc2cc(NCCN3CCOCC3)ccc2F)C1)N1N=CC[C@H]1c1cc(F)cc(F)c1 [Compound 371, (S)-(5-(3,5-difluorophenyl)-4,5-dihydro-1H-pyrazol-1-yl)(3-(2-fluoro-5-((2-morpholinoethyl)amino)benzylidene)azetidin-1-yl)methanone] | 1 to 1000
O=C(Nc1nccc(O[C@@H]2CCN(C(=O)N3N=CC[C@H]3c3cc(F)cc(F)c3)C2)n1)C1CC1 [Compound 369, N-(4-(((R)-1-((S)-5-(3,5-difluorophenyl)-4,5-dihydro-1H-pyrazole-1-carbonyl)pyrrolidin-3-yl)oxy)pyrimidin-2-yl)cyclopropanecarboxamide] | 1 to 1000
O=C(N1CC(Oc2ccc3ncc(=O)[nH]c3n2)C1)N1N=CC[C@H]1c1cc(F)cc(F)c1 [Compound 256, (S)-6-((1-(5-(3,5-difluorophenyl)-4,5-dihydro-1H-pyrazole-1-carbonyl)azetidin-3-yl)oxy)pyrido[2,3-b]pyrazin-3(4H)-one] | 1 to 1000
Nc1ccc(F)c(C=C2CN(C(=O)N3N=CC[C@H]3c3cc(F)cc(F)c3)C2)n1 [Compound 244] | 1 to 1000
NC(=O)c1ccnc(O[C@@H]2CCN(C(=O)N3N=CC[C@H]3c3cc(F)cc(F)c3)C2)n1 [Compound 332, 2-(((R)-1-((S)-5-(3,5-difluorophenyl)-4,5-dihydro-1H-pyrazole-1-carbonyl)pyrrolidin-3-yl)oxy)pyrimidine-4-carboxamide] | 1 to 1000
